The text below walks through data of patent US20200392107A1, “CYCLIC AMINE DERIVATIVE AND MEDICAL USE THEREOF” (Toray Industries, Inc., priority 2018, published 2020).

Test [1] addresses T1, RORγ-LBD (GST-fused ligand-binding domain of RORγ) / coactivator TRAP220/DRIP-2 (Homo sapiens, UniProt P51449).
T1 construct: purchased Invitrogen
T1 sequence (P51449 269-508 limits assumed): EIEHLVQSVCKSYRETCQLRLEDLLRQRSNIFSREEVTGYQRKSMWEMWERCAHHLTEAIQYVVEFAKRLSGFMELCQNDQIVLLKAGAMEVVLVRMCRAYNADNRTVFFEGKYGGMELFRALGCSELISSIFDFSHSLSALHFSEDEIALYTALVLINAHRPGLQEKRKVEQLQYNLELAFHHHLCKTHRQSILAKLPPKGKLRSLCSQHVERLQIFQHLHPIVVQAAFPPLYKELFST
The test is described as follows: Inhibitory effect on RORγ-coactivator binding (LanthaScreen TR-FRET RORγ Coactivator Assay). The test is classed as biochemical. Particulars: at 33 μmol/L of the test compound; read-out: RORγ-coactivator binding inhibition rate (%). The procedure:
The inhibitory effect of the cyclic amine derivative (I) or a pharmacologically acceptable salt thereof on the binding between a ligand-binding domain of RORγ (hereinafter referred to as RORγ-LBD) and a coactivator was evaluated using Invitrogen's LanthaScreen™ TR-FRET Retinoid-Related Orphan Receptor (ROR) gamma Coactivator Assay kit utilizing time-resolved fluorescence energy transfer (TR-FRET).
A test compound was dissolved in DMSO and diluted with TR-FRET Coregulator Buffer D (Invitrogen) containing 5 mmol/L of DTT to have a final DMSO concentration of 1% before use. To each well of a 384-well black plate (Corning Inc.), 4 nmol/L of GST-fused RORγ-LBD (Invitrogen) diluted with the buffer mentioned above and the test compound were added. A well without addition of the test compound and without addition of GST-fused RORγ-LBD (background) and a well without addition of the test compound and with addition of GST-fused RORγ-LBD (control) were prepared. Next, 150 nmol/L of fluorescein-labeled TRAP220/DRIP-2 (Invitrogen) diluted with the buffer mentioned above and 32 nmol/L of terbium-labeled anti-GST antibody (Invitrogen) were added to each well. After incubating the plate at room temperature for 16 to 24 hours, the fluorescence at 495 nm and 520 nm when excited at 320 nm was measured for each well and the ratio (fluorescence value at 520 nm/fluorescence value at 495 nm) was calculated.
The fold change with addition of the test compound (ratio with addition of the test compound/ratio of the background), the fold change of the control (ratio of the control/ratio of the background), and the fold change of the background (ratio of the background/ratio of the background) were calculated, and then the inhibition rate of binding between RORγ-LBD and a coactivator (hereinafter referred to as RORγ-coactivator binding inhibition rate) (%) was calculated from Formula (1):
RORγ-coactivator binding inhibition rate (%)=(1−((Fold change with addition of the test compound)−(Fold change of the background))/((Fold change of the control)−(Fold change of the background)))×100 (1).

For test [2], the system named is IL-17 production in mouse splenocytes. Nature of the test: Suppressive effect on IL-17 production by IL-23 stimulation in mouse splenocytes. The test is classed as cell-based. To be noted: Splenocyte, 72 h, at 5 μmol/L of the test compound, human IL-23 10 ng/mL, cultured 3 days, read-out: IL-17 production inhibition rate (%). On the procedure:
Using mouse splenocytes, the suppressive effect of the cyclic amine derivative (I) or a pharmacologically acceptable salt thereof on IL-17 production by IL-23 stimulation was evaluated by a partially modified method mentioned in The Journal of Biological Chemistry, 2003, Vol. 278, No. 3, p. 1910-1914.
A single cell suspension was prepared from the spleen of C57BL/6J mice (male or female, 6 to 30 weeks old) (Charles River Laboratories Japan, Inc. or CLEA Japan, Inc.) and splenocytes were prepared using Histopaque-1083 (Sigma-Aldrich Japan). The culture medium was used by adding 10% FBS (Gibco), 50 U/mL of penicillin-50 μg/mL of streptomycin (Gibco), 50 μmol/L of 2-mercaptoethanol (Gibco), and 100 U/mL of human IL-2 (Cell Science & Technology Institute, Inc.) to RPMI1640 medium (Gibco). A test compound was dissolved in DMSO and then diluted with the culture medium to have a final concentration of DMSO of 0.1% before use. Splenocytes (3×10^5 cells/well) prepared in the culture medium were seeded in wells of a 96-well flat-bottom plate (Corning Incorporated), the test compound and 10 ng/mL of human IL-23 (R & D systems, Inc.) were added thereto, and the cells were cultured at 37° C. under 5% CO2 for 3 days. A well without addition of human IL-23 and without addition of the test compound and a well with addition of human IL-23 and without addition of the test compound were prepared. After completion of the culture, the culture supernatant was collected and the IL-17 production amount in the supernatant was determined by ELISA method (R & D systems, Inc.).
The IL-17 production inhibition rate (%) was calculated from Formula (2).
IL-17 production inhibition rate (%)=(1−((IL-17 production amount with addition of IL-23 and with addition of the test compound)−(IL-17 production amount without addition of IL-23 and without addition of the test compound))/((IL-17 production amount with addition of IL-23 and without addition of the test compound)−(IL-17 production amount without addition of IL-23 and without addition of the test compound)))×100 (2).

For `CC(=O)N1CCCC[C@@H]1C(=O)Nc1cc(Cl)c2c(c1)CCN2C[C@H]1CC[C@H](C(F)(F)F)CC1` [Example 9, (R)-1-acetyl-N-(7-chloro-1-((trans-4-(trifluoromethyl)cyclo-hexyl)methyl)indolin-5-yl)piperidine-2-carboxamide], the inhibition at 33 µM in test [1] came to 96.8%. The inhibition at 5 µM in test [2] was found to be 99.5%.
In the case of `CC(=O)N1CCCC[C@@H]1C(=O)Nc1cc(Cl)c2c(c1)CCCN2Cc1ccc(C(F)(F)F)cc1` [Example 1, (R)-1-acetyl-N-(8-chloro-1-(4-(trifluoromethyl)benzyl)-1,2,3,4-tetrahydroquinolin-6-yl)piperidine-2-carboxamide], the inhibition at 33 µM in test [1] is 96.9%. For the same compound, in test [2], the inhibition at 5 µM is 98%.
The like results for `CC(=O)N1CCCC[C@@H]1C(=O)Nc1cc(Cl)c2c(c1)CCN2Cc1ccc(C(F)(F)F)cc1` [Example 4, (R)-1-acetyl-N-(7-chloro-1-(4-(trifluoromethyl)benzyl)indolin-5-yl)piperidine-2-carboxamide] were, in that order, 96.7% and 99.9%.
